According to patent US20110301079A1, “NEUROMEDIN U RECEPTOR AGONISTS AND USES THEREOF” (Instituto di Ricerche di Biologia Molecolare P. Angeletti …, priority 2007, published 2011):
pEC50: −log10 of the molar value. Residues, ends and D or L forms follow the SMILES beside them. Groups on a side chain read outwards from the residue. No end group written: not given here. *: point of attachment. Succinimide(1-Et,3-yl) = CCN1C(=O)CC(*)C1=O

Assays:
[1] = biological target: T1, human NMUR1 (Homo sapiens, UniProt Q9HB89); assay: FLIPR calcium mobilization assay, human NMUR1-expressing cell line; type: cell-based; conditions: for pEC50: human NMUR1, FLIPR
T1 construct: expressed in transfected cells; host or cells: FLP-In CHO cells and HEK-293 FLP-In cells (pcDNA5)
T1 sequence (Q9HB89 1-426): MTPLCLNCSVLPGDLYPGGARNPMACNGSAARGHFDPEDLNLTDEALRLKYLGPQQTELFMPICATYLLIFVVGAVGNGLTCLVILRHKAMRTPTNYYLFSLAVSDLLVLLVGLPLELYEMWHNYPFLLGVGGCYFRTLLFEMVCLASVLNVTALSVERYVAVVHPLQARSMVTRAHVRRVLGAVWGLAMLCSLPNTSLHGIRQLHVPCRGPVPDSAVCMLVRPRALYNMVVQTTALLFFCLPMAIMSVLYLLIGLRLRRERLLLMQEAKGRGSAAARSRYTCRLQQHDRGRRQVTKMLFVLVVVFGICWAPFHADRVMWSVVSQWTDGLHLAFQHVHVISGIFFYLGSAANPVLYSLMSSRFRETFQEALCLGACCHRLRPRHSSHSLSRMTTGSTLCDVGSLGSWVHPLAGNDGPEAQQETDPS
Description: (§1) Human, mouse or rat cDNAs encoding NMUR1 or NMUR2 (as described in Howard et al. Nature 406: 70-74 (2000) were subcloned in pcDNA5 (Invitrogen) and transfected into FLP-In CHO cells and HEK-293 FLP-In cells purchased from Invitrogen (Carlsbad, Calif.) using lipofectamine (Invitrogen). The Flp-In system allows integration and expression of a particular gene of interest at a specific genomic location utilizing the Flp recombinase from yeast. The transfected cells were selected by growth in medium containing 200 μg/mL hygromycin (Invitrogen). Populations were frozen at early passage numbers, and these stocks were used for further studies. Stable clones that expressed the mRNAs were identified functionally by FLIPR as well as by RT-PCR. […] Two different rodent NMUR1 cell lines were thus generated: one with the codon as predicted from the genomic databases and another cell line with an engineered methionine (ATG) as the start codon. The dog NMU receptors were also cloned from intestine RNA (NMUR1) and brain (NMUR2) and stable cell lines were generated as used for the human and rodent cell lines. […] To ensure high levels of expression in a heterologous system, a dog NMUR1 cell line was generated that contains an ATG as the start codon. Additionally, stable cell lines expressing the human receptors were generated in HEK-293/aeq 17 cells which stably express the aequorin gene under the CMV promoter. The human NMUR2 cDNA was cloned into pcDNA3.1 and human NMUR1 was subcloned into pIRES-puro (Clontech, Mountain View, Calif.), after transfection cells were selected in media containing G418 and either hygromycin (NMUR2) or puromycin (NMUR1).
(§2) The NMU receptors signal primarily through Gαq/11 proteins; therefore calcium mobilization assays can be utilized for functional activity.
(§3) Stable cell lines expressing human and or rodent NMUR1 or human NMUR2 receptors are plated at a density of 12,000 cells per well overnight on poly-lysine coated 384-well black-walled plates. The following day, the media is removed from the plates and the cells were subsequently loaded with Fluo-3 (Molecular Probes), a calcium sensitive dye, diluted in FLIPR buffer (1× Hank's buffered saline containing 20 mM HEPES, 0.1% BSA, 2.5 mM probenecid (Sigma) and 1.6 mM TR40). All reagents are from Invitrogen unless otherwise noted. Peptide stocks are resuspended in DMSO at a stock concentration of 2 mM and diluted in FLIPR buffer on the day of the experiment to a 4 μM working stock solution.
(§4) After a 90 minute incubation at room-temperature, cell plates are loaded onto a FLIPR (Molecular Devices) to monitor cellular fluorescence (excitation=488 nm; emission=540 nm) before and after compound/peptide addition. Eight to twelve point dose responses are tested on NMUR-expressing cell lines using FLIPR with 1 μM peptide as the highest dose. The response after peptide addition is taken as the maximum fluorescence units minus the fluorescence immediately prior to stimulation for each well. EC50 values are calculated using GraphPad Prism (San Diego, Calif.) software.
(§5) Percent activity refers to the maximum response at 1 μM compared to the human NMU-25 response at the same concentration.

[2] = biological target: T2, human NMUR2 (Homo sapiens, UniProt Q9GZQ4); assay: FLIPR calcium mobilization assay, human NMUR2-expressing cell line; type: cell-based; conditions: for pEC50: human NMUR2, FLIPR
T2 construct: expressed in transfected cells; host or cells: FLP-In CHO cells and HEK-293 FLP-In cells (pcDNA5)
T2 sequence (Q9GZQ4 whole entry): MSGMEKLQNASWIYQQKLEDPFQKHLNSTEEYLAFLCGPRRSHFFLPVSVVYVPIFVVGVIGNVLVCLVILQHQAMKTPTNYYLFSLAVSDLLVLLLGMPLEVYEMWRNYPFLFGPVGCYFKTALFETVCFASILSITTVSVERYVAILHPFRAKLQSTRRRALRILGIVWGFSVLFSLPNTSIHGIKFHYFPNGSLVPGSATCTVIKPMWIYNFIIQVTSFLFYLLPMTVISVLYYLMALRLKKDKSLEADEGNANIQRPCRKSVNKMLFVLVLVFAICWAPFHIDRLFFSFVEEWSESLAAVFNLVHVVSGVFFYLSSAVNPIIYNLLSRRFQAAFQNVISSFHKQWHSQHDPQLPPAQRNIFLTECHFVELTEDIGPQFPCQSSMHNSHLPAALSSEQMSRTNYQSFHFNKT
Description: as §1, §2, §3, §4, §5

[3] = biological target: T3, mouse NMUR1-ATG (Mus musculus, UniProt O55040); assay: FLIPR calcium mobilization assay, mouse NMUR1-ATG cell line; type: cell-based; conditions: for pEC50: FLIPR
T3 construct: expressed in transfected cells; host or cells: FLP-In CHO cells and HEK-293 FLP-In cells (pcDNA5)
T3 sequence (O55040 1-428): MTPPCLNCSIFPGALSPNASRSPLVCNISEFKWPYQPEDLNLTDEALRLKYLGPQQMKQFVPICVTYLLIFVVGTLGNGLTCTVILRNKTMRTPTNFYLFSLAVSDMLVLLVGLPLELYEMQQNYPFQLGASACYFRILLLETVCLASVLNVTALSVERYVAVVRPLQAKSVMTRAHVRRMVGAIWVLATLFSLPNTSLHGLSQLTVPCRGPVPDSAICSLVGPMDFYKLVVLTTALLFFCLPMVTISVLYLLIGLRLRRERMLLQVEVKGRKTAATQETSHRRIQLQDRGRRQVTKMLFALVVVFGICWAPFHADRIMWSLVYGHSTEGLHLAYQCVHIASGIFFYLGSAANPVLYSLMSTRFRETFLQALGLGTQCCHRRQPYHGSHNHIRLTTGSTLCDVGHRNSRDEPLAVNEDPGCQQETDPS
Description: as §1, §2, §3, §4, §5

[4] = biological target: T4, mouse NMUR2 (Mus musculus, UniProt Q8BZ39); assay: FLIPR calcium mobilization assay, mouse NMUR2 cell line; type: cell-based; conditions: for pEC50: mouse NMUR2, FLIPR
T4 construct: expressed in transfected cells; host or cells: FLP-In CHO cells and HEK-293 FLP-In cells (pcDNA5)
T4 sequence (Q8BZ39 whole entry): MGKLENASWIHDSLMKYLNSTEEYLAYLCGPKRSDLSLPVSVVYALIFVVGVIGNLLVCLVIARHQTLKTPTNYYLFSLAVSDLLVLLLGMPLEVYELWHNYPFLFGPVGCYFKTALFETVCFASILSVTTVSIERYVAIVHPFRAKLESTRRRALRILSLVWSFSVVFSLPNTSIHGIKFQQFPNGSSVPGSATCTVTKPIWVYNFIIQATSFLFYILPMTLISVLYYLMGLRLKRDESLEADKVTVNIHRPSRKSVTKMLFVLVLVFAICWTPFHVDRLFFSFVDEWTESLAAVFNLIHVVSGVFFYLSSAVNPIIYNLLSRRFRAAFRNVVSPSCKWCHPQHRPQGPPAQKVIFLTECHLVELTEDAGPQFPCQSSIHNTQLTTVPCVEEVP
Description: as §1, §2, §3, §4, §5

[5] = tested on: dog NMUR1-ATG; assay: FLIPR calcium mobilization assay, dog NMUR1-ATG cell line; type: cell-based; conditions: for pEC50: FLIPR
Description: as §1, §2, §3, §4, §5

[6] = biological target: T5, dog NMUR2 (Canis lupus familiaris, UniProt A0A8I3MN59); assay: FLIPR calcium mobilization assay, dog NMUR2 cell line; type: cell-based; conditions: for pEC50: dog NMUR2, FLIPR
T5 construct: expressed in transfected cells
T5 sequence (A0A8I3MN59 1-378): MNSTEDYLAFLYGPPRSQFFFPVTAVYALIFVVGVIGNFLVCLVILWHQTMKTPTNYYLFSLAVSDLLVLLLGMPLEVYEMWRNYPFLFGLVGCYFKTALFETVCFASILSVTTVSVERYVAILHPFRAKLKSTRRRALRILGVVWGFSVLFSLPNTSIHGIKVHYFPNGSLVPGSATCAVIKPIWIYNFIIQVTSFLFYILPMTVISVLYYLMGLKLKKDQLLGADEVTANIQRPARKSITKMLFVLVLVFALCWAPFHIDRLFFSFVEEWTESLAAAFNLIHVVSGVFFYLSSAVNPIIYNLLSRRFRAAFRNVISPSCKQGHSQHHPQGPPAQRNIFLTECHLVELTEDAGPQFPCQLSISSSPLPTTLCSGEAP
Description: as §1, §2, §3, §4, §5

[7] = tested on: mice; assay: Acute subcutaneous administration of NMS analogs, daily food intake and body weight; type: in vivo; conditions: for overnight food intake: FIG. 6A; for duration of significant reduction of food intake: daily food intake over a four-day period
Description: (§6) Ad libitum fed male diet-induced obese mice obtained from Taconic Farms were weighed and dosed either i.p. or s.c. with NMS or NMU at about 30 minutes prior to the onset of the dark phase of the light cycle and provided with a pre-weighed aliquot of high fat diet (D12492: 60% kcal from fat: Research Diets, Inc.), which was then weighed two and 18 hours after the onset of the initial dark phase. Mice were weighed at the 18 hour (overnight) time point.
The efficacy of various PEGylated NMS analogs were evaluated using the aforementioned assays. The PEGylated NMS analogs evaluated were NMS1 and NMS4 (See Table 1).
NMS1, NMS3, and NMS4 were administered subcutaneously and daily food intake was measured over a four-day period.

[8] = tested on: male diet-induced obese mice; assay: Acute feeding study with NMU and NMS; type: in vivo; conditions: acute peripheral administration (i.p. or s.c.), FIG. 1A
Description: as §6

[9] = tested on: wild-type, Nmur1 knockout, Nmur2 knockout and Nmur1/Nmur2 double knockout mice; assay: Acute feeding study in wild-type and Nmur knockout mice; type: in vivo
Description: as §6
NMUR1 knockout (Nmur1−/−) mice were generated using standard homologous recombination techniques. Nmur1 mice were subsequently transferred to Taconic Farms where they were either maintained on a 75% C57BL/6×25% 129S6/SvEv mixed genetic background or backcrossed 6 generations to C57BL/6. NMUR2 knockout (Nmur2−/−) mice were licensed from Deltagen Inc., San Mateo, Calif. and subsequently transferred to Taconic Farms were they were either maintained on a 75% C57BL/6×25% 129/OlaHsd mixed genetic background or backcrossed for 7 generations to C57BL/6. NMUR1 and NMUR2 double knockout (Nmur1&2−/−) mice were generated by crossing N6 Nmur1−/− mice to N7 Nmur2−/− mice. Mice were individually housed in Tecniplast cages in a conventional SPF facility. Mice were initially maintained on a regular chow diet and then early in their life were switched to a high fat diet (D12492) with ad libitum access to water in a 12-h light/12-h dark cycle.
The anorectic effects of NMS1 were mediated by both the NMUR1 and NMUR2 receptors. […] Effects on food intake (FIG. 9A) and body weight (FIG. 9B) are shown.

[10] = acute subcutaneous administration
[11] = acute subcutaneous administration, FIG. 6B
[12] = maximum response at 1 μM compared to the human NMU-25 response at the same concentration

Row | Compound | pEC50 [1] | pEC50 [2] | pEC50 [3] | pEC50 [4] | pEC50 [5] | pEC50 [6] | overnight food intake [7, 10] | body weight [7, 11] | duration of significant reduction of food intake [7, 10] | also measured
1 | Ac-C4ILQRGSGTAAVDFTKKDHTATWGRPFFLFRPRN-CONH2 (Ac-C([maleimide-PEG 40 kDa])ILQRGSGTAAVDFTKKDHTATWGRPFFLFRPRN-NH2) [NMS4, C4 = Cys(PEG)40 kDa, cysteine PEGylated via the side-chain thiol with a linear PEG] | 7.13 | 6.99 | 7.18 | 7.71 | 7.88 | 8.51 | significantly reduced | Significant reductions | two days post-dose | 
2 | NMU: Neuromedin U; full length 25-mer (NMU-25) in humans (FRVDEEFQSPFASQSRGYFLFRPRN; ends and bridges not checked; UniProt P48645 142-166, looked up) |  |  |  |  |  |  |  |  |  | food intake [8]: dose-dependently reduced
3 | CC[C@H](C)[C@H](NC(=O)[C@H](CSC1CC(=O)N(CC)C1=O)NC(C)=O)C(=O)N[C@@H](CC(C)C)C(=O)N[C@@H](CCC(N)=O)C(=O)N[C@@H](CCCNC(=N)N)C(=O)NCC(=O)N[C@@H](CO)C(=O)NCC(=O)N[C@H](C(=O)N[C@@H](C)C(=O)N[C@@H](C)C(=O)N[C@H](C(=O)N[C@@H](CC(=O)O)C(=O)N[C@@H](Cc1ccccc1)C(=O)N[C@H](C(=O)N[C@@H](CCCCN)C(=O)N[C@@H](CCCCN)C(=O)N[C@@H](CC(=O)O)C(=O)N[C@@H](Cc1c[nH]cn1)C(=O)N[C@H](C(=O)N[C@@H](C)C(=O)N[C@H](C(=O)N[C@@H](Cc1c[nH]c2ccccc12)C(=O)NCC(=O)N[C@@H](CCCNC(=N)N)C(=O)N1CCC[C@H]1C(=O)N[C@@H](Cc1ccccc1)C(=O)N[C@@H](Cc1ccccc1)C(=O)N[C@@H](CC(C)C)C(=O)N[C@@H](Cc1ccccc1)C(=O)N[C@@H](CCCNC(=N)N)C(=O)N1CCC[C@H]1C(=O)N[C@@H](CCCNC(=N)N)C(=O)N[C@@H](CC(N)=O)C(N)=O)[C@@H](C)O)[C@@H](C)O)[C@@H](C)O)C(C)C)[C@@H](C)O (stereo partly shown) [NMS3] (Ac-C(Succinimide(1-Et,3-yl))ILQRGSGTAAVDFTKKDHTATWGRPFFLFRPRN-NH2) | 7.94 | 7.74 | 8.06 | 7.92 | 7.94 | 8.66 |  |  |  | % Activity ([1]; human NMUR1, maximum response at 1 μM compared to the human NMU-25 response at the same concentration): 97%; % Activity ([2]; human NMUR2, maximum response at 1 μM compared to the human NMU-25 response at the same concentration): 105%; % Activity [3, 12]: 98%; % Activity ([4]; mouse NMUR2, maximum response at 1 μM compared to the human NMU-25 response at the same concentration): 108%; % Activity [5, 12]: 101%; % Activity ([6]; dog NMUR2, maximum response at 1 μM compared to the human NMU-25 response at the same concentration): 107%
4 | Ac-C2ILQRGSGTAAVDFTKKDHTATWGRPFFLFRPRN-CONH2 (Ac-C([maleimide-(PEG)2 40 kDa])ILQRGSGTAAVDFTKKDHTATWGRPFFLFRPRN-NH2) [NMS1, C2 = Cys(PEG)240 kDa, cysteine PEGylated via the side-chain thiol with a branched PEG] | 6.85 | 6.40 | 6.23 | 7.54 | 7.73 | 7.65 | significantly reduced | Significant reductions | three days post-dose | effects on food intake and body weight ([9]; Nmur2 knockout animals, FIGS. 9A and 9B): only overnight effects; food intake ([9]; acute administration, Nmur1/Nmur2 double knockout animals, FIG. 8A): no effect; body weight ([9]; acute administration, Nmur1/Nmur2 double knockout animals, FIG. 8B): no effect; anorectic efficacy ([9]; acute administration, wild-type animals): highly efficacious; body weight ([7]; NMS1 compared to NMU9, FIG. 7B): Significant reductions; food intake ([7]; dose response, NMS1 versus NMU9, FIG. 7A): reduced food intake for at least three days post-dose in a dose-dependent manner
